Legend:
[1] = test system: rat formalin model of pain; assay: Formalin test (formalin-induced flinching); type: in vivo; settings: for Decrease in formalin flinching: phase 2 (10 to 40 min), percent of vehicle
Method: Formalin-induced flinching was measured using the Automated Nociception Analyzer (ANA) (University Anesthesia Research & Development Group, La Jolla, CA). Rats were habituated to the ANA testing chambers for at least 30 minutes prior to the formalin injection. At test time, each rat was removed from the testing chamber and gently wrapped in a towel. 50 μL of 2.5% formalin solution was injected into the dorsal surface of the left hind paw with a 30 gauge needle. A small metal band was then affixed to the plantar side of the injected paw with one drop of super glue. The animal was then unwrapped from the towel, placed back in the testing chamber, and flinching behavior was scored for 40 minutes by the ANA software. While minimized, non-painful paw movement from the natural activity of an alert animal could be erroneously binned by the automated recording system as a nociceptive behavior. These behaviors are not subtracted from the flinching total. […] Total flinching behavior was used as the endpoint of the assay.

[2] = test system: rat spinal nerve ligation model; assay: Tactile allodynia following spinal nerve ligation (SNL); type: in vivo; settings: 30 mg/kg, 120 min after dosing, day 21 after SNL; not statistically significant (p = 0.99)
Excerpt: A decrease in tactile response threshold, using calibrated von Frey filaments (Stoelting Co., Wood Dale, IL), was used as a measure of tactile allodynia following spinal nerve ligation (SNL). Prior to surgery, each animal underwent baseline testing to determine suitability for the assay. Briefly, animals were placed on a raised platform with a grid meshed floor. The distance between the mesh was ¼”. Once acclimated, each animal received a series of trials according to the up-down method described by Dixon. Animals showing a response to less than 4 g were deemed already sensitive to the stimulus and were removed. A maximal fiber of 15 g was employed as a cut-off threshold. Surgery was then performed with a procedure slightly modified by that reported by Kim and Chung. Briefly, the left L5 spinal nerve was carefully isolated from the surrounding tissue. Using 5–0 silk suture, a tight ligature was placed around L5 nerve. Muscle and skin were then closed using 4–0 absorbable suture and wound clips. Animals were allowed to recover and were carefully monitored for seven days to ensure proper healing and ensure there was no mutilation of the affected limb. On day 21 post-surgery, animals were again tested to ensure the development of tactile allodynia. […] Animals were then randomized into groups and dosed with the test compound, gabapentin, or vehicle and assessed as stated above. […]

## CC(=O)Nc1cccc(Nc2ncnc(N3CCC(OCc4ccc(OC(F)(F)F)cc4)CC3)n2)c1C [Compound 52, N-(2-methyl-3-((4-(4-((4-(trifluoromethoxy)benzyl)oxy)-1-piperidinyl)-1,3,5-triazin-2-yl)amino)phenyl)acetamide]
[1]; 3 mg/kg p.o.
  Decrease in formalin flinching: 9%
[1]; 10 mg/kg p.o.
  Decrease in formalin flinching: 22%
[1]; 30 mg/kg p.o.
  Decrease in formalin flinching: 79%
[1]; rat formalin model, significant (p < 0.05) decrease in flinching at a dose without a reduction in open field movement that obviated the result
  Analgesic efficacy: Yes
[1]; rat formalin test
  Reduction in formalin flinching, result in words: statistically significant and plasma concentration-dependent reduction in formalin flinching
[1]; same formulation and i.v. route as electrophysiology, data not shown
  Behavioral analgesic efficacy in the formalin model, i.v. delivery: equivalent to morphine
[2]
  Reversal of tactile allodynia compared to the vehicle group: 15%
